Type in all cases: biochemical
Assay [1] deals with T1, hBChE (Homo sapiens, UniProt P06276). The experiment in a line: biochemical. The settings on record: for Selectivity index (IC50 hAChE/IC50 hBChE): hAChE over hBChE; for IC50 values (hBChE), in words: linker of 4 methylene groups; for fold lower activity than heptyl carbamate 7 (IC50 hBChE): compared with compound 7. Here is the method: (§1) For evaluation of enzyme inhibition, Ellman's colorimetric assay was conducted as described in Ellman, G. L., Arch. Biochem. Biophys 1958, 74, 443-450 and Ellman, G. L. et al., Biochem. Pharmacol. 1961, 7, 88-95. Therefor, 5,5'-dithiobis-(2-nitrobenzoic acid) (DTNB) solution, respective Cholinesterase (ChE) and inhibitor were incubated together and enzyme activity was measured after 20 min. The long incubation time was needed to allow the carbamate transfer between ChE and inhibitor.
(§2) The carbamate residue was altered systematically by changing residues in the terminal position of carbamate moiety and different flexible alkylene linkers were introduced. […] Nevertheless, it must be noted that IC50 values only serve as a first indicator of inhibitor affinity and selectivity. Due to the chemical reaction of carbamate transfer the enzyme inhibition is strongly time dependent. […]

The target in assay [2] is T1, hBChE. The experiment in a line: Carbamoylation kinetics on hBChE (time-dependent inhibition, Kc and k3). The settings on record: for k3 [min^-1] hBChE: carbamoylation rate constant; for Kd: carbamoylation, pre-equilibrium constant. An excerpt: As carbamate based inhibitors (C-X) show a pseudo irreversible manner of binding, the IC50 values must be seen critically because two chemical reactions determine them: Carbamate (C) transfer onto the enzyme (E) and carbamate hydrolysis. So, the Kc values, k3 and k4 rate constants according to below formula were investigated for some representative compounds (c.f. Fig. 3 and Fig. 4). [formula]
The mechanism of enzyme inhibition can be divided into three steps: In a pre-equilibrium, the carbamate based inhibitor C-X is bound to the enzyme E and a complex (EC-X) is formed reversible and can be characterized with Kc. Then the carbamate C is transferred onto the enzyme E and binds covalently to form E-C with the rate constant k3 while carrier scaffold X is released. Then E-C is hydrolyzed and enzyme activity is recovered and the amine C' is released with the rate constant k4, also called decarbamoylation rate.
For the determination of Kc and k3 a similar experimental setup was used compared to the evaluation of IC50 values, whereas enzyme activity was measured at various time points after addition of inhibitor.
A = A0 ⋅e^(−kobs ⋅t) + A∞ [formula]
Plotting the enzyme activity (in %) against the incubation times, lead to nonlinear time-dependent inhibition curves for the respective inhibitor concentrations whereby kobs can be determined with an exponential fit correspondent to equation (I).
Furthermore, a hyperbolic curve is obtained, plotting the rate constant kobs against the inhibitor concentration [I], which is described by equation (II), with the substrate concentration [S] and the Michaelis-Menten constant KM. kobs = (k3 ⋅[I])/(KC ⋅(1+([S])/(KM)) + [I]) [formula]
This equation (II) can be rearranged to the reciprocal of kobs, to get a linear plot: (1)/(kobs) = (KC ⋅(1+([S])/(KM)))/(k3)⋅(1)/([I]) + (1)/(k3) [formula]
Since the substrate butyrylthiocholine iodide is not added directly to the enzyme and the inhibitor, but after the incubation of enzyme with inhibitor, [S] can be set to zero, leading to Michaelis-Menten like equation IV. (1)/(kobs) = (KC)/(k3)⋅(1)/([I]) + (1)/(k3) [formula]
Relating to the linear equation (IV), KC can be established from the slope and carbamoylation rate constant k3 from the y-intercept.
As a chemical reaction is taking place, Kc must be seen as a 'real' measure for quantification of enzyme inhibitor interactions. Due to the high costs in measurements on hBChE only some representative compounds were chosen to evaluate also in kinetic studies based on the results from IC50 measurements (table 3). Table 3. Kinetic values for carbamoylation on hBChE for selected representative compounds

A further assay concerns the target hAChE (Homo sapiens, UniProt P22303). Kind of assay: Ellman's colorimetric assay, inhibition of hAChE. The settings on record: for IC50 / plC50 ± SEM (hAChE): enzyme activity measured after 20 min incubation. Here is the method:
as §1, §2

The target of assay [3] is T1, hBChE. Kind of assay: Decarbamoylation from hBChE, dilution experiments (recovery of enzyme activity, k4). Conditions: decarbamoylation rate, after 1 h incubation and 1:1000 dilution. The procedure: To further investigate the presence and nature of a peripheral binding site, also the hydrolysis of carbamate and the resulting release of the inhibitor from the enzyme was investigated by measuring the time dependent recovery of enzyme activity. To measure the decarbamoylation rate k4, dilution experiments were performed with hBChE following the procedure described in Sawatzky, E. et al., ChemMedChem 2016, 11, 1540-1550 and in Bartolucci, C. et al., Biochem. J. 2012, 444, 269-277. A high concentration of enzyme and inhibitor where incubated for 1 h. The concentration of inhibitor was chosen, such that > 85% of hBChE was inhibited through carbamate transfer. Then the mixture was diluted with buffer 1:1000 to a concentration at which the enzyme is not further carbamoylated. Due to the hydrolysis and release of the carbamate from the catalytic active serine enzyme activity was recovered slowly. This regeneration of the enzyme was monitored at different time points after the dilution. […] A = (1−e^(k4 ⋅t))⋅(1−A0) + A0 [formula] Table 4. Kinetic values for decarbamoylation from hBChE of selected compounds

[4] abbreviates: enzyme activity measured after 20 min incubation.
Where [5] appears, read: enzyme activity measured after 20 min incubation, read-out: IC50 hBChE.

Where two headings read alike, the source gives them in different places.

This is an account of results in EP3683219A1, “COMPOUND INHIBITING BUTYRYLCHOLINESTERASE” (Julius-Maximilians-Universität Würzburg, priority 2019, dated 2020).

T1 sequence (P06276 29-602): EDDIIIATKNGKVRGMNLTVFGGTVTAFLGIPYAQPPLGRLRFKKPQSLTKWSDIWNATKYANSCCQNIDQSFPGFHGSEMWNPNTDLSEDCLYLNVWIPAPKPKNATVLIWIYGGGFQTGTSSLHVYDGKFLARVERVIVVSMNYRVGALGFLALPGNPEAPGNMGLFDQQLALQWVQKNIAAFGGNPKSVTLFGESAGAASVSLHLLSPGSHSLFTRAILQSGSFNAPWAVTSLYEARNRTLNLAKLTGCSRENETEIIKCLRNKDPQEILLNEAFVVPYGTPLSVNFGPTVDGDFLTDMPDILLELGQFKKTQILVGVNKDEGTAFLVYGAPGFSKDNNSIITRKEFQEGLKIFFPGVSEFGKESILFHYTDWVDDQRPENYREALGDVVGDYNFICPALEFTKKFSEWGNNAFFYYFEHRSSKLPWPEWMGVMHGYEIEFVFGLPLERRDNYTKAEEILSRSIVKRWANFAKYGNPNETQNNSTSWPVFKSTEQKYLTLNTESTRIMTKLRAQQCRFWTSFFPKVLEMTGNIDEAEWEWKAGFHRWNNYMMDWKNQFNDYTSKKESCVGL
hAChE, sequence (P22303 32-614): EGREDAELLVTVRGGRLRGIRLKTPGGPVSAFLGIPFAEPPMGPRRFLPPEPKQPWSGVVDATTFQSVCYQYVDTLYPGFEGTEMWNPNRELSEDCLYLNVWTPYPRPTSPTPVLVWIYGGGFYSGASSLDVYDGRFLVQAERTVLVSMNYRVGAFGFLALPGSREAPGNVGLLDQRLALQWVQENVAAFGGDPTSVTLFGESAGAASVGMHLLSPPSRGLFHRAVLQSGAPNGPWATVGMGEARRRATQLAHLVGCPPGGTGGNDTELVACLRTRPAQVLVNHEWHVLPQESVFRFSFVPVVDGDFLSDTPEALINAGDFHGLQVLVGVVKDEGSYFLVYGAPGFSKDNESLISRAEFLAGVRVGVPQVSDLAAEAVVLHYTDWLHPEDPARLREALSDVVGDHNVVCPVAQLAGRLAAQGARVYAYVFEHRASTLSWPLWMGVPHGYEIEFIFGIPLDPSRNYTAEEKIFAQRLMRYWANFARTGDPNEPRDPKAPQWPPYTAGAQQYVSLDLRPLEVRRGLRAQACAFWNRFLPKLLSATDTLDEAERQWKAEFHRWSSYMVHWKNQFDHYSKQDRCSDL

Turning to `CN1c2ccc(OC(=O)NCCCCCCCCCCN3CCc4ccccc4C3)cc2CN2CCc3ccccc3C21` (stereo not shown) [Compound 19l], the “plC50 ± SEM (hBChE)” value on hBChE [1] (setting [4]) is 7.38 ±0.04. For the same compound, the IC50 on hBChE [1] (setting [5]) worked out at 41.8 nM. Besides, the “Selectivity index (IC50 hAChE/IC50 hBChE)” value (“Selectivity index” below) at hBChE [1] was >1000. For the same compound, on hBChE [2], the “Kc values (hBChE), in words” value was “one-digit nanomolar range”; the “k3 [min^-1] hBChE” value is 0.25 ± 0.04 min⁻¹; the equilibrium dissociation constant (Kd) is 5.68 ± 2.19 nM. At 10 µM the inhibition at hAChE was 15%.

As to `CN1c2ccc(OC(=O)NCCN3CCc4ccccc4C3)cc2CN2CCc3ccccc3C21` (stereo not shown) [Compound 19g], on hBChE [1] (setting [4]), the “plC50 ± SEM (hBChE)” value worked out at 5.76 ± 0.05. In addition, on hBChE [1] (setting [5]), the IC50 amounted to 1720 nM. In addition, the “Selectivity index” value on hBChE [1] is given as >10. In addition, on hBChE [2], the “k3 [min^-1] hBChE” value is >20 min⁻¹ and the Kd was > 200000 nM. This compound returned an inhibition at 10 µM on hAChE of 10%.

Consider `CN1c2ccc(OC(=O)NCCCCN3CCc4ccccc4C3)cc2CN2CCc3ccccc3C21` (stereo not shown) [Compound 19i], for which the “plC50 ± SEM (hBChE)” value at hBChE [1] (setting [4]) came out at 6.72 ± 0.06. On hBChE [1] (setting [5]), the IC50 was 192 nM. For the same compound, at hBChE [1], the “Selectivity index” value is reported as >100 and the “IC50 values (hBChE), in words” value was “two-digit nanomolar”. Further, the inhibition at 10 µM on hAChE was 16%. Further, on hBChE [3], the k4 came to 0.028 ± 0.001 h⁻¹.

Take `CN1c2ccc(OC(=O)NCCN3CCOCC3)cc2CN2CCc3ccccc3C21` (stereo not shown) [Compound 19a]: the “plC50 ± SEM (hBChE)” value on hBChE [1] (setting [4]) is 5.11 ± 0.04. The IC50 at hBChE [1] (setting [5]) is 7770 nM. Besides, the “Selectivity index” value at hBChE [1] is >10. Moreover, the inhibition at 100 µM on hAChE (read-out: inhibition of hAChE) came to 17%.

For `CN1c2ccc(OC(=O)NCCCCCCN3CCCC3)cc2CN2CCc3ccccc3C21` (stereo not shown) [Compound 19o], on hBChE [1], the midpoint of inhibition, the IC50, lay at 339 nM; the “fold lower activity than heptyl carbamate 7 (IC50 hBChE)” value is reported as “approximately 10 fold”; the “Selectivity index” value was determined as 26. Further, the IC50 at hBChE [1] (setting [5]) stood at 34.3 nM. At hAChE, the concentration for half-maximal inhibition (IC50) was 880 nM and the “plC50 ± SEM (hAChE)” value is listed as 6.06 ± 0.03. Also, the k4 on hBChE [3] was 0.98 ± 0.04 h⁻¹.

For `CN1c2ccc(OC(=O)NCCCCN3CCOCC3)cc2CN2CCc3ccccc3C21` (stereo not shown) [Compound 19c], the “plC50 ± SEM (hBChE)” value on hBChE [1] (setting [4]) worked out at 7.30 ± 0.02. Besides, the IC50 on hBChE [1] (setting [5]) was determined as 50.6 nM. In addition, at hBChE [1], the “Selectivity index” value was >1000 and the “IC50 values (hBChE), in words” value is recorded as “two-digit nanomolar”. In addition, the inhibition at 100 µM on hAChE (read-out: inhibition of hAChE) amounted to 13%. At hBChE [3], this compound gave a k4 of 0.48 ± 0.06 h⁻¹.

In the case of `CN1c2ccc(OC(=O)NCCCCCCN3CCN(C(=O)OC(C)(C)C)CC3)cc2CN2CCc3ccccc3C21` (stereo not shown) [Compound 19q], on hBChE [1], inhibition was half-maximal at 794 nM (IC50) and the “Selectivity index” value was >100. The IC50 at hBChE [1] (setting [5]) stood at 123 nM. At hBChE [2], the “k3 [min^-1] hBChE” value was 0.70 ± 0.31 min⁻¹ and binding was put at a Kd of 1550 ± 827 nM. Besides, the inhibition at 25 µM at hAChE (read-out: inhibition of hAChE) is 15%.

Consider `CN1c2ccc(OC(=O)NCCCN3CCOCC3)cc2CN2CCc3ccccc3C21` (stereo not shown) [Compound 19b], for which the “plC50 ± SEM (hBChE)” value at hBChE [1] (setting [4]) is recorded as 6.03 ± 0.02. Also, the IC50 on hBChE [1] (setting [5]) was determined as 938 nM. Further, the “Selectivity index” value on hBChE [1] is on record as >100. In addition, at hAChE (read-out: inhibition of hAChE), the inhibition at 100 µM amounted to 13%.

Take `CN1c2ccc(OC(=O)NCCCCCCN3CCCCC3)cc2CN2CCc3ccccc3C21` (stereo not shown) [Compound 19p]: at hBChE [1], the “fold lower activity than heptyl carbamate 7 (IC50 hBChE)” value is “approximately 10 fold” and the “Selectivity index” value is recorded as 14. Also, on hBChE [1] (setting [4]), the “plC50 ± SEM (hBChE)” value worked out at 7.08 ± 0.04. Besides, the IC50 on hBChE [1] (setting [5]) stood at 83.7 nM. On hAChE, 1200 nM corresponded to half-maximal inhibition (IC50) and the “plC50 ± SEM (hAChE)” value worked out at 5.91 ± 0.03. The compound further had a k4 on hBChE [3] of 0.129 ± 0.006 h⁻¹.

`CN1c2ccc(OC(=O)NCCCN3CCc4ccccc4C3)cc2CN2CCc3ccccc3C21` (stereo not shown) [Compound 19h]: on hBChE [1] (setting [4]), the “plC50 ± SEM (hBChE)” value is 5.94 ± 0.05. Also, the IC50 on hBChE [1] (setting [5]) was 1160 nM. Besides, the “Selectivity index” value at hBChE [1] is given as >10. Also, on hAChE, testing at 10 µM gave an inhibition of 12%.

With `CN1c2ccc(OC(=O)NCCCCCCCCCCN3CCOCC3)cc2CN2CCc3ccccc3C21` (stereo not shown) [Compound 19f], the “plC50 ± SEM (hBChE)” value at hBChE [1] (setting [4]) worked out at 7.94 ± 0.07. The IC50 at hBChE [1] (setting [5]) is 11.5 nM. On hBChE [1], the “Selectivity index” value is reported as >1000. Moreover, the inhibition at 100 µM at hAChE (read-out: inhibition of hAChE) stood at 25%.
